Test systems include CAKI-1 renal; DU-145 prostate; HCC-2998 colon; HT29 colon; M14 melanoma; MCF7 breast; NCI-H460 lung; PC-3 prostate; SF-295 CNS; SR leukemia.
Common to all, as to experiment: inhibition of tumour cell growth, NCI panel, 48 h

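Five compound concentrations were applied to cells in 96-well plates for 48 hours; endpoints were derived by simple linear interpolation of the resulting dose-response curve. GI50 marks 50% less growth. TGI: concentration producing complete growth inhibition.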 Bounds are passed on as bounds.

On to `c1ccc2c(c1)[C@@H]1O[C@@H]1[C@@]13O[C@@]21[C@H]1O[C@H]1c1ccccc13`, for which the TGI in the assay on CAKI-1 renal is 23.2 µM; in the assay on DU-145 prostate, 29.2 µM; with HCC-2998 colon, 35.1 µM; with HT29 colon, 51.9 µM; with M14 melanoma, 33.6 µM; in the assay on MCF7 breast, over 100 µM. In addition, the results for the TGI in the assay on NCI-H460 lung, in the assay with PC-3 prostate and in the assay with SF-295 CNS were 74.9 µM, 30 µM and 30.1 µM, respectively.
Regarding `Cc1cc(N)c2cc(NC(=O)CCCCCCCCC(=O)Nc3ccc4nc(C)cc(N)c4c3)ccc2n1`, the TGI in the assay with CAKI-1 renal was over 100 µM; with HCC-2998 colon, over 82.9 µM; with HT29 colon, over 100 µM; with M14 melanoma it was over 100 µM; in the assay with NCI-H460 lung, over 100 µM; in the assay on SF-295 CNS, over 88.7 µM. This molecule had a TGI in the assay with SR leukemia of over 100 µM.
Turning to `Cc1nc(C)c(C(=O)NNC(=O)c2ccccc2)cc1C(=O)NNC(=O)c1ccccc1`, the TGI in the assay with CAKI-1 renal, with DU-145 prostate, with HCC-2998 colon, in the assay on HT29 colon, in the assay on M14 melanoma and in the assay on MCF7 breast was over 100 µM throughout. Besides, the TGI in the assay on NCI-H460 lung, in the assay with PC-3 prostate and with SF-295 CNS was over 100 µM throughout.
Turning to `Fc1sc2c(c1F)C1CCC2C1` (stereo unspecified), the TGI in the assay with CAKI-1 renal, in the assay on DU-145 prostate, in the assay with HCC-2998 colon, in the assay with HT29 colon, in the assay with M14 melanoma and in the assay with MCF7 breast was over 100 µM each time. The TGI in the assay on NCI-H460 lung, in the assay with PC-3 prostate and with SF-295 CNS was over 100 µM throughout.
For H-KIFKKFKTIIKKVWRIFGRF-NH2, the GI50 was 2.65 µM in the assay on HCC-2998 colon; 2.92 µM in the assay on HT29 colon; 2.37 µM in the assay on M14 melanoma; 3.04 µM with MCF7 breast; 2.05 µM in the assay on SF-295 CNS; 2.72 µM with SR leukemia. Moreover, the TGI with HCC-2998 colon is 7.68 µM; with HT29 colon, over 100 µM; in the assay on M14 melanoma it was over 100 µM; in the assay on MCF7 breast, over 100 µM; in the assay on SF-295 CNS it was 4.68 µM; in the assay on SR leukemia, over 100 µM.
Regarding `Cc1cc(S(=O)(=O)Nc2n[nH]c(N)n2)c(S)cc1Cl`, the TGI with CAKI-1 renal, in the assay on DU-145 prostate, in the assay with HCC-2998 colon, in the assay with HT29 colon, with M14 melanoma and in the assay with MCF7 breast was over 10 µM each time. The TGI in the assay on NCI-H460 lung, in the assay with PC-3 prostate and with SF-295 CNS was over 10 µM in each case.
Take `CC(=O)c1nc(C#N)c(N)o1`: the TGI in the assay on CAKI-1 renal, with DU-145 prostate, with HCC-2998 colon, in the assay on HT29 colon, in the assay with M14 melanoma and in the assay on MCF7 breast was over 100 µM throughout. For the same molecule, the TGI with NCI-H460 lung, with PC-3 prostate and in the assay with SF-295 CNS was over 100 µM each time.
For the molecule `Nc1nc(Cl)cc(NCC2CC(O)(CO)C2)n1` (stereo unspecified), the TGI with CAKI-1 renal, with DU-145 prostate, in the assay with HCC-2998 colon, in the assay on HT29 colon, in the assay on MCF7 breast and with NCI-H460 lung was over 100 µM each time. Moreover, the TGI in the assay with PC-3 prostate and with SF-295 CNS was over 100 µM in each case.
Regarding `CC(=O)OCC12C(OC(C)=O)C[C@@H](C)C3(CC(c4ccoc4)OC3=O)C1CCC(OC(C)=O)C21CO1` (stereo partly specified), the TGI in the assay on CAKI-1 renal, in the assay on DU-145 prostate, with HCC-2998 colon, with HT29 colon, in the assay with M14 melanoma and in the assay with MCF7 breast was over 100 µM throughout. Also, the TGI with NCI-H460 lung, in the assay with PC-3 prostate and with SF-295 CNS was over 100 µM throughout.
With `O=C(O)CSc1nnc(COc2ccccc2)n1-c1ccccc1`, the TGI with HCC-2998 colon, in the assay on HT29 colon, with M14 melanoma, in the assay with NCI-H460 lung, in the assay on SF-295 CNS and in the assay on SR leukemia was over 100 µM in each case.
With `Cc1cccc(-c2cc(=O)c3cc(C)cnc3[nH]2)c1`, the TGI was over 100 µM in the assay with CAKI-1 renal; 13.3 µM with DU-145 prostate; 6.82 µM with HCC-2998 colon; over 100 µM in the assay with M14 melanoma; 13.1 µM in the assay on NCI-H460 lung; over 56.9 µM in the assay with PC-3 prostate. In addition, the TGI came out at 0.609 µM with SF-295 CNS and 1.7 µM with SR leukemia.
On to `CN(C)CC(C)(C)C(=O)/C=C/c1ccccc1`, for which the TGI with CAKI-1 renal turned out to be 40.3 µM; in the assay on HT29 colon it was 33.9 µM; with M14 melanoma, 26.7 µM; in the assay on NCI-H460 lung, 74.6 µM; with SF-295 CNS it was 33.2 µM.
Regarding `CC(C)(C)C1=CC(O)(c2c3ccccc3c(C3(O)C=C(C(C)(C)C)C(=O)C(C(C)(C)C)=C3)c3ccccc23)C=C(C(C)(C)C)C1=O`, the TGI in the assay with CAKI-1 renal, with DU-145 prostate, in the assay with HT29 colon, with M14 melanoma, with MCF7 breast and in the assay on PC-3 prostate was over 100 µM in each case. Further, the TGI with SF-295 CNS is over 100 µM.
With `COc1ccc(Cn2nc(OCc3ccccc3)c3cc([N+](=O)[O-])ccc32)cc1`, the TGI in the assay with DU-145 prostate, with HCC-2998 colon, in the assay on HT29 colon, with M14 melanoma, with MCF7 breast and in the assay with NCI-H460 lung was over 100 µM each time. In addition, the TGI in the assay with SF-295 CNS and in the assay on SR leukemia was over 100 µM in each case.
`CCC(C)Cn1c(C)nc2c1C(=O)c1ccccc1C2=O` (stereo unspecified): the TGI in the assay on HCC-2998 colon was over 100 µM; in the assay on HT29 colon, over 100 µM; in the assay on M14 melanoma, over 100 µM; in the assay on NCI-H460 lung, 34.3 µM; with SF-295 CNS, over 100 µM; in the assay with SR leukemia it was over 100 µM.
